Structures are written as SMILES.

The assay concerns the target T1, human PDE5 (Homo sapiens, UniProt O76074).
T1 construct: from tissue; host or cells: platelets from fresh blood of human donors (lysate, 10,000 g supernatant)
Briefly: Inhibition of the type 5 phosphodiesterase (PDE5) activity, modified SPA test with platelet lysate. The conditions noted are these: PDE5 from human platelet lysate, 0.5 μM cGMP. The class given is biochemical. Put shortly:
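Human platelet lysate (10,000 g supernatant) as PDE5 source in SPA with 0.5 μM cGMP plus [3H]cGMP tracer, pH 7.4, 5 mM Mg2+, 1 μM motapizone and 10 nM PDE2 inhibitor; 10–20% conversion. 5 min preincubation, 15 min at 37 °C, stopped with SPA beads/IBMX. IC50 by non-linear regression.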
`CC(=O)N1CCC[C@@H](NC(=O)c2c[nH]c3c(-c4c(OCC5CC5)ccc5c4OCO5)ncnc23)C1` [Example 49, 4-(5-Cyclopropylmethoxy-benzo[1,3]dioxol-4-yl)-5H-pyrrolo[3,2-d]pyrimidine-7-carboxylic acid ((R)-1-acetyl-piperidin-3-yl)-amide]: the midpoint of inhibition, the IC50, lay at 0.339 nM. With `COCCOc1cc(OC)ccc1-c1ncnc2c(C(=O)N[C@H]3CC[C@@H](NC(=O)C4CC4)CC3)c[nH]c12` [Example 153, cis-4-[4-Methoxy-2-(2-methoxy-ethoxy)-phenyl]-5H-pyrrolo[3,2-d]pyrimidine-7-carboxylic acid [4-(cyclopropanecarbonyl-amino)cyclohexyl]-amide], the IC50 is 6.17 nM.

The compound `COCC(=O)N1CCC(CNC(=O)c2c[nH]c3c(-c4c(OCC5CC5)ccc5c4OCO5)ncnc23)C1` (centres unmarked) [Example 33, 4-(5-Cyclopropylmethoxy-benzo[1,3]dioxol-4-yl)-5H-pyrrolo[3,2-d]pyrimidine-7-carboxylic acid [1-(2-methoxy-acetyl)-pyrrolidin-3-ylmethyl]-amide] gave an IC50 of 1.51 nM. Take `O=C(NC1CN(C(=O)CO)C1)c1c[nH]c2c(-c3c(OCC4CC4)ccc4c3OCO4)ncnc12` [Example 195, 4-(5-Cyclopropylmethoxy-benzo[1,3]dioxol-4-yl)-5H-pyrrolo[3,2-d]pyrimidine-7-carboxylic acid [1-(2-hydroxy-ethanoyl)-azetidin-3-yl]-amide]: 1.32 nM corresponded to half-maximal inhibition (IC50). The IC50 values of the last two compounds are within 1.5-fold of each other. The compound `COCC(=O)N1CCC[C@@H](NC(=O)c2c[nH]c3c(-c4cc(F)c(OC)cc4OCC4CC4)ncnc23)C1` [Example 112, 4-(2-Cyclopropylmethoxy-5-fluoro-4-methoxy-phenyl)-5H-pyrrolo[3,2-d]pyrimidine-7-carboxylic acid [(R)-1-(2-methoxy-ethanoyl)-piperidin-3-yl]amide] showed a half-maximal inhibitory concentration (IC50) of 0.138 nM. In the case of `COCC(=O)N[C@H]1CC[C@@H](NC(=O)c2c[nH]c3c(-c4cc(OC)ccc4OCC4CC4)ncnc23)CC1` [Example 69, cis-4-(2-Cyclopropylmethoxy-5-methoxy-phenyl)-5H-pyrrolo[3,2-d]pyrimidine-7-carboxylic acid [4-(2-methoxy-acetylamino)-cyclohexyl]-amide] it was 1.78 nM; in that of `O=C(N[C@@H]1CCN(C(=O)C2CC2)C1)c1c[nH]c2c(-c3c(OCC4CC4)ccc4c3OCO4)ncnc12` [Example 16, 4-(5-Cyclopropylmethoxy-benzo[1,3]dioxol-4-yl)-5H-pyrrolo[3,2-d]pyrimidine-7-carboxylic acid [(R)-1-(1-cyclopropyl-methanoyl)-pyrrolidin-3-yl]amide], 0.389 nM; in that of `CCOC(=O)N1CCOC(CNC(=O)c2c[nH]c3c(-c4c(OCC5CC5)ccc5c4OCO5)ncnc23)C1` (centres unmarked) [Example 38, 2-({[4-(5-Cyclopropylmethoxy-benzo[1,3]dioxol-4-yl)-5H-pyrrolo[3,2-d]pyrimidine-7-carbonyl]-amino}-methyl)-morpholine-4-carboxylic acid ethyl ester], 0.398 nM.

The compound `O=CN1CCCC(CNC(=O)c2c[nH]c3c(-c4c(OCC5CC5)ccc5c4OCO5)ncnc23)C1` (centres unmarked) [Example 28, 4-(5-Cyclopropylmethoxy-benzo[1,3]dioxol-4-yl)-5H-pyrrolo[3,2-d]pyrimidine-7-carboxylic acid (1-formyl-piperidin-3-ylmethyl)-amide] gave an IC50 of 0.692 nM. In the case of `CCOC(=O)N[C@H]1CC[C@@H](NC(=O)c2c[nH]c3c(-c4ccc(F)cc4OCC4CC4)ncnc23)CC1` [Example 77, cis-(4-{[4-(2-Cyclopropylmethoxy-4-fluoro-phenyl)-5H-pyrrolo[3,2-d]pyrimidine-7-carbonyl]-amino}-cyclohexyl)-carbamic acid ethyl ester] it was 2.14 nM; in that of `COCC(=O)N[C@H]1CC[C@H](NC(=O)c2c[nH]c3c(-c4c(OCC5CCC5)ccc5c4OCO5)ncnc23)CC1` [Example 128, trans-4-(5-Cyclobutylmethoxy-benzo[1,3]dioxol-4-yl)-5H-pyrrolo[3,2-d]pyrimidine-7-carboxylic acid [4-(2-methoxy-ethanoylamino)-cyclohexyl]-amide], 0.209 nM.

The IC50 is the point on the concentration scale where inhibition reaches its midpoint. Read a high IC50 as weaker potency.

The values above are taken from patent US8445501B2, “Substituted 7-carboxamido-pyrrolo[3,2-d]pyrimidines” (Takeda GmbH, priority 2008, dated 2013).
